Laboratory results reported in ChEMBL document CHEMBL5034032, “Discovery and Structure-Based Optimization of Fragments Binding the Mixed Lineage Kinase Domain-like Protein Executioner Domain” (J Med Chem, 2021).

Assays:
[1] = target: T1, Mixed lineage kinase domain-like protein (Homo sapiens, UniProt Q8NB16); assay: Binding affinity to MLKL N-terminal executioner domain (2 to 154 residues)(unknown origin) assessed as dissociation constant by TROSY-HSQC NMR titration analysis
T1 sequence (Q8NB16 whole entry): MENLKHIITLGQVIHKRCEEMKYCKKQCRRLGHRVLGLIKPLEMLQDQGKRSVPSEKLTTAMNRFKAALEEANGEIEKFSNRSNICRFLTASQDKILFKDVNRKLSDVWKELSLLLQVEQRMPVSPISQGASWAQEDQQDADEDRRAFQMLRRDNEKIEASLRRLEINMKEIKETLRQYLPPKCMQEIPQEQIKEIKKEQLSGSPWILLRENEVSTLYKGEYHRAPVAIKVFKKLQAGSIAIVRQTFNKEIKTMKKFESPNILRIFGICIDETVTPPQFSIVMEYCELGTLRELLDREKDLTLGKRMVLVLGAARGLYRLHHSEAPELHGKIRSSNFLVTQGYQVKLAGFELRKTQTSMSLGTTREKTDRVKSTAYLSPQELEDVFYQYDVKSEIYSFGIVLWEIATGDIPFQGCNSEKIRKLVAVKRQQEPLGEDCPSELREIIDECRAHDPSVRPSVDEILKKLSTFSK

[2] = Permeability of compound by PAMPA assay; assay type: ADME; conditions: read-out: permeability

| Kd [1] [µM] | Papp [2] [×10⁻⁶ cm/s] | SMILES |
| --- | --- | --- |
| 5530 | – | CCCCCCCCCO[C@@H]1O[C@H](CO)[C@@H](O[C@H]2O[C@H](CO)[C@@H](O)[C@H](O)[C@H]2O)[C@H](O)[C@H]1O |
| 73 | – | COCCOCn1c(S(C)(=O)=O)nc2c1c(=O)n(C)c(=O)n2C |
| – | 0.031 | CO[C@@H](c1ccc(C(C)C)cc1)c1nc2ccc(C(=O)O)cc2[nH]1 |
